According to patent publication US10041937B2, “Macrophage identification agent, and identification method, sorting method, evaluation method, screening method and kit using the macrophage identifier agent” (CANON KABUSHIKI KAISHA, priority 2013, dated 2018):

System: M1 macrophages and M2 macrophages differentiated from mouse bone marrow cells
Assay: Subtype identification by staining and flow cytometry of M1 and M2 macrophages differentiated from mouse bone marrow cells
Type: cell-based, Balb/c mouse
Outline: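 Balb/c mouse bone marrow cells were differentiated to macrophages with 50 ng/mL M-CSF over two 3–4-day periods, then polarized for 3 days to M1 (interferon-γ plus polyliposaccharide) or M2 (IL-4). Live cells (aqua dye-negative) were analysed by flow cytometry; resolution R = |FM1−FM2|/(WM1+WM2) from histogram peak positions and widths indexed subtype discrimination.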

[1] = fluorescence intensity at peak top of histogram, compound 1 μM, 37° C., 30 minutes

CCOC(=O)CCN1C(=O)/C(=C\c2ccc3c(c2)C2CCCC2N3CC)SC1=S (centres unmarked) [compound (1)]
Resolution ratio R (R=|FM1−FM2|/(WM1+WM2), compound 1 μM): 1.150
Peak position of M1 macrophage [1]: 85.8
Peak position of M2 macrophage [1]: 12.4
Evaluation of macrophage subtype identification (rated from resolution R): A (The compound is very good in the subtype identification (namely, the resolution R is 0.5 or more))
subtype more strongly stained (two compounds used in combination, each 1 μM): the M1 macrophages are more strongly stained than the M2 macrophages
